Data published in US10118947B2, “Modulation of structured polypeptide specificity” (BICYCLE THERAPEUTICS LIMITED, priority 2013, dated 2018).
Read-outs that look alike come from different tables or passages of the source. Blank lines part the entries; values can stand above or below the compound they belong to. Numbered stars: 1 amine (or outer) side, 2 acyl side, 3 side chain; on linkers, the order of the positions; unused ones are H or OH. Bridge positions count the residues as written; N and C are the ends. Square brackets hold non-standard residues; d marks the D form. Peptide text beside a SMILES is read from it. Gly(N-CH2CH2-imidazol-4-yl) = O=C(O)CNCCc1c[nH]cn1; His(τ-Me) = Cn1cnc(C[C@H](N)C(=O)O)c1; TBMB = c1c(C[*:1])cc(C[*:3])cc1C[*:2]; 2Pal = N[C@@H](Cc1ccccn1)C(=O)O; 3Pal = N[C@@H](Cc1cccnc1)C(=O)O; 4Pal = N[C@@H](Cc1ccncc1)C(=O)O; Chg = N[C@H](C(=O)O)C1CCCCC1; Phg = N[C@H](C(=O)O)c1ccccc1; NMeS = CN[C@@H](CO)C(=O)O; Sar = CNCC(=O)O

Molecular target: T1, human plasma Kallikrein (Homo sapiens, UniProt P03952)
T1 construct: purchased Stratech, UK
Assay: Functional enzyme inhibition assay with fluorogenic substrate Z-PheArg-AMC, human plasma Kallikrein
Type: biochemical
Procedure: Functional enzyme assays were conducted in 10 mM Tris HCl, 150 mM NaCl, 10 mM MgCl2, 1 mM CaCl2) and 1 mg/mL BSA (all Sigma UK) pH7.4 at 25° C. in solid black 96 well plates. Briefly 26.5 pM human plasma Kallikrein (purchased from Stratech, UK) or 500 pM rat plasma Kallikrein (expressed and purified in house) were incubated in the absence or presence of increasing concentrations of test peptide for 15 minutes before addition of the fluorogenic substrate Z-PheArg-AMC (Enzo Lifesciences UK) to a final assay concentration of 100 μM in 4% DMSO. Release of AMC was measured using a Pherastar FS (BMG Labtech), excitation 360 nm, emission 460 nm. The rate of the linear phase of the reaction, typically 5 to 45 minutes, was calculated in MARS data analysis software (BMG labtech). The rate was then used to calculate the IC50 and Ki in Prism (GraphPad). A four parameter inhibition non-linear regression equation was used to calculate the IC50.
Peptides were dissolved as the TFA-salts in their powder form, and stock solutions were usually prepared in water. All solutions were centrifuged and filtered ([…] syringe filters) prior absorption measurement at 280 nm. […] For peptides containing non-natural amino acids with suspected chromophoric properties (i.e. NorHar, 4PhenylPro, 3Pal, 4Pal, Tic, 4GuanPhe, 4,4-BPAI, 3,3-DPA, 1NAI, 2NAI, 4BenzylPro, Ind) concentrations were determined by weighing the powder and dissolving the peptide in a defined quantity of water.

[1] = Table 24b, residue 7 modifications, read-out: Ki
[2] = Table 24b, ratio of Ki to wild type
[3] = Table 24c, residue 8 modifications, read-out: Ki
[4] = Table 24c, ratio of Ki to wild type
[5] = Table 24a, residue 6 modification in the context of Ac-(06-34-18), read-out: Ki (nM) Ac-(06-34-18)

T1 sequence (P03952 20-638): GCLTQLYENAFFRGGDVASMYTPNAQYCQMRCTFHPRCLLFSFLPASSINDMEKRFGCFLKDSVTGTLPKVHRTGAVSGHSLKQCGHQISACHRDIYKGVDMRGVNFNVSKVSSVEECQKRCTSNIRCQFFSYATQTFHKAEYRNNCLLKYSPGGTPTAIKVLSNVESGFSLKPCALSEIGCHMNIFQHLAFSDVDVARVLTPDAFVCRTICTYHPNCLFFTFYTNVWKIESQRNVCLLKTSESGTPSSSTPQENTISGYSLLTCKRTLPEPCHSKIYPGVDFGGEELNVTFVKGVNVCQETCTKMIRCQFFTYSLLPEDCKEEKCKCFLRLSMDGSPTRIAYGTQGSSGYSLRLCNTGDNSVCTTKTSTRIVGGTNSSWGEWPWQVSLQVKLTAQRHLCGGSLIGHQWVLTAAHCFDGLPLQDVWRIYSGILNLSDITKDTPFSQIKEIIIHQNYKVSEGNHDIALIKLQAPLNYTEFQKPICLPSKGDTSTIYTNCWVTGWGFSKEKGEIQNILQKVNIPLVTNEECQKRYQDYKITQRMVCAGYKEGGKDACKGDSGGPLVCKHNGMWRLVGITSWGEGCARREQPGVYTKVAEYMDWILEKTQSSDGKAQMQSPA

Ki (Table 24a, residue 6 modification in the context of Ac-(06-34-18) Phe2 Tyr4, read-out: Ki (nM) Ac-(06-34-18) Phe2 Tyr4): 1.46 nM
SMILES: CC[C@H](C)[C@@H]1NC(=O)[C@@H]2CSCc3cc(cc(c3)CSC[C@H](NC(C)=O)C(=O)N[C@@H](CO)C(=O)N[C@@H](Cc3ccccc3)C(=O)N3CCC[C@H]3C(=O)N[C@@H](Cc3ccc(O)cc3)C(=O)N[C@@H](CCCNC(=N)N)C(=O)N2)CSC[C@@H](C(N)=O)NC(=O)[C@H](CC(C)C)NC(=O)[C@H](CC(=O)O)NC(=O)[C@H](CCC(N)=O)NC(=O)[C@H](Cc2c[nH]cn2)NC1=O [Ac-(06-34-18) Phe2 Tyr4 Ile6] (Ac-CSFPYRCIHQDLC-NH2; linker 1-7-13 via TBMB)

F (Kivar/KiWT) (Table 25b, fold change of Ki of variant compared to WT): 519 | Ki (Table 25b, peptide backbone modifications in Loop2, human plasma kallikrein, read-out: Ki): 218 nM
SMILES: CC(=O)N[C@H]1CSCc2cc3cc(c2)CSC[C@H](NC(=O)[C@H](CCCNC(=N)N)NC(=O)[C@H](Cc2ccc(O)cc2)NC(=O)[C@@H]2CCCN2C(=O)[C@H](Cc2ccccc2)NC(=O)[C@H](CO)NC1=O)C(=O)N[C@@H](CC(C)C)C(=O)N(CCc1c[nH]cn1)CC(=O)N[C@@H](CCC(N)=O)C(=O)N[C@@H](CC(=O)O)C(=O)N[C@@H](CC(C)C)C(=O)N[C@H](C(N)=O)CSC3 [Ac-(06-34-18) Phe2 Tyr4 N-His7] (Ac-CSFPYRCL[Gly(N-CH2CH2-imidazol-4-yl)]QDLC-NH2; linker 1-7-13 via TBMB)

SMILES: CC(=O)N[C@H]1CSCc2cc3cc(c2)CSC[C@H](NC(=O)[C@H](CCCNC(=N)N(C)C)NC(=O)[C@H](C)NC(=O)[C@@H]2CCCN2C(=O)[C@H](Cc2c[nH]c4ccccc24)NC(=O)[C@H](CO)NC1=O)C(=O)N[C@@H](CC(C)C)C(=O)N[C@@H](Cc1c[nH]cn1)C(=O)N[C@@H](CCC(N)=O)C(=O)N[C@@H](CC(=O)O)C(=O)N[C@@H](CC(C)C)C(=O)N[C@H](C(N)=O)CSC3 [Ac-(06-34-18) NDMA5]
Ki (Table 11, read-out: Ki (nM) (human kallikrein)): 510 nM

Ki [1]: 53 nM | F (Kivar/KiWT) [2]: 126
SMILES: CC(=O)N[C@H]1CSCc2cc3cc(c2)CSC[C@H](NC(=O)[C@H](CCCNC(=N)N)NC(=O)[C@H](Cc2ccc(O)cc2)NC(=O)[C@@H]2CCCN2C(=O)[C@H](Cc2ccccc2)NC(=O)[C@H](CO)NC1=O)C(=O)N[C@@H](CC(C)C)C(=O)N[C@@H](Cc1ccccn1)C(=O)N[C@@H](CCC(N)=O)C(=O)N[C@@H](CC(=O)O)C(=O)N[C@@H](CC(C)C)C(=O)N[C@H](C(N)=O)CSC3 [Ac-(06-34-18) Phe2 Tyr4 2Pal7] (Ac-CSFPYRCL[2Pal]QDLC-NH2; linker 1-7-13 via TBMB)

Ki [1]: 10 nM | F (Kivar/KiWT) [2]: 23
SMILES: CC(=O)N[C@H]1CSCc2cc3cc(c2)CSC[C@H](NC(=O)[C@H](CCCNC(=N)N)NC(=O)[C@H](Cc2ccc(O)cc2)NC(=O)[C@@H]2CCCN2C(=O)[C@H](Cc2ccccc2)NC(=O)[C@H](CO)NC1=O)C(=O)N[C@@H](CC(C)C)C(=O)N[C@@H](Cc1cn(C)cn1)C(=O)N[C@@H](CCC(N)=O)C(=O)N[C@@H](CC(=O)O)C(=O)N[C@@H](CC(C)C)C(=O)N[C@H](C(N)=O)CSC3 [Ac-(06-34-18) Phe2 Tyr4 His1Me7] (Ac-CSFPYRCL[His(τ-Me)]QDLC-NH2; linker 1-7-13 via TBMB)

Ki [1]: 130 nM | F (Kivar/KiWT) [2]: 308
SMILES: CC(=O)N[C@H]1CSCc2cc3cc(c2)CSC[C@H](NC(=O)[C@H](CCCNC(=N)N)NC(=O)[C@H](Cc2ccc(O)cc2)NC(=O)[C@@H]2CCCN2C(=O)[C@H](Cc2ccccc2)NC(=O)[C@H](CO)NC1=O)C(=O)N[C@@H](CC(C)C)C(=O)N[C@@H](Cc1cccnc1)C(=O)N[C@@H](CCC(N)=O)C(=O)N[C@@H](CC(=O)O)C(=O)N[C@@H](CC(C)C)C(=O)N[C@H](C(N)=O)CSC3 [Ac-(06-34-18) Phe2 Tyr4 3Pal7] (Ac-CSFPYRCL[3Pal]QDLC-NH2; linker 1-7-13 via TBMB)

potency / binding to kallikrein (in words): reduction in potency
SMILES: CC(C)C[C@@H]1NC(=O)[C@H](CC(=O)O)NC(=O)[C@H](CCC(N)=O)NC(=O)[C@H](Cc2c[nH]cn2)NC(=O)CN(C)C(=O)[C@@H]2CSCc3cc(cc(c3)CSC[C@H](NC(=O)[C@H](C)N)C(=O)N(C)CC(=O)N[C@@H](Cc3c[nH]c4ccccc34)C(=O)N3CCC[C@H]3C(=O)N[C@@H](C)C(=O)N[C@@H](CCCNC(=N)N)C(=O)N2)CSC[C@@H](C(=O)N[C@@H](C)C(N)=O)NC1=O [06-34-03-N-MeGly1,6, ACN-MeGWPARC(N-MeG)HQDLCA] (H-AC[Sar]WPARC[Sar]HQDLCA-NH2; linker 2-8-14 via TBMB; N-terminus and C-terminus assumed)

Ki (Table 3c, D-Alanine scan in Loop2, read-out: Ki): 19.9 nM | F (Kivar/KiWT) (Table 3c, ratio of Ki to wild type): 47
SMILES: CC(=O)N[C@H]1CSCc2cc3cc(c2)CSC[C@H](NC(=O)[C@H](CCCNC(=N)N)NC(=O)[C@H](Cc2ccc(O)cc2)NC(=O)[C@@H]2CCCN2C(=O)[C@H](Cc2ccccc2)NC(=O)[C@H](CO)NC1=O)C(=O)N[C@@H](CC(C)C)C(=O)N[C@@H](Cc1c[nH]cn1)C(=O)N[C@@H](CCC(N)=O)C(=O)N[C@H](C)C(=O)N[C@@H](CC(C)C)C(=O)N[C@H](C(N)=O)CSC3 [Ac-(06-34-18) Phe2 Tyr4 D-Ala9] (Ac-CSFPYRCLHQ[dA]LC-NH2; linker 1-7-13 via TBMB)

Ki [3]: 2.53 nM | F (Kivar/KiWT) [4]: 6
SMILES: CC(=O)N[C@H]1CSCc2cc3cc(c2)CSC[C@H](NC(=O)[C@H](CCCNC(=N)N)NC(=O)[C@H](Cc2ccc(O)cc2)NC(=O)[C@@H]2CCCN2C(=O)[C@H](Cc2ccccc2)NC(=O)[C@H](CO)NC1=O)C(=O)N[C@@H](CC(C)C)C(=O)N[C@@H](Cc1c[nH]cn1)C(=O)N[C@@H](CCC(=O)O)C(=O)N[C@@H](CC(=O)O)C(=O)N[C@@H](CC(C)C)C(=O)N[C@H](C(N)=O)CSC3 [Ac-(06-34-18) Phe2 Tyr4 Glu8] (Ac-CSFPYRCLHEDLC-NH2; linker 1-7-13 via TBMB)

Ki [3]: 4.23 nM | F (Kivar/KiWT) [4]: 10
SMILES: CC(=O)N[C@H]1CSCc2cc3cc(c2)CSC[C@H](NC(=O)[C@H](CCCNC(=N)N)NC(=O)[C@H](Cc2ccc(O)cc2)NC(=O)[C@@H]2CCCN2C(=O)[C@H](Cc2ccccc2)NC(=O)[C@H](CO)NC1=O)C(=O)N[C@@H](CC(C)C)C(=O)N[C@@H](Cc1c[nH]cn1)C(=O)N[C@@H]([C@@H](C)O)C(=O)N[C@@H](CC(=O)O)C(=O)N[C@@H](CC(C)C)C(=O)N[C@H](C(N)=O)CSC3 [Ac-(06-34-18) Phe2 Tyr4 Thr8] (Ac-CSFPYRCLHTDLC-NH2; linker 1-7-13 via TBMB)

SMILES: CC(=O)N[C@H]1CSCc2cc3cc(c2)CSC[C@H](NC(=O)[C@H](CCCNC(=N)N)NC(=O)[C@H](C)NC(=O)[C@@H]2CCCN2C(=O)[C@@H](Cc2c[nH]c4ccccc24)NC(=O)[C@H](CO)NC1=O)C(=O)N[C@@H](CC(C)C)C(=O)N[C@@H](Cc1c[nH]cn1)C(=O)N[C@@H](CCC(N)=O)C(=O)N[C@@H](CC(=O)O)C(=O)N[C@@H](CC(C)C)C(=O)N[C@H](C(N)=O)CSC3 [Ac-(06-34-18) D-Trp2]
reduction in potency/affinity compared to wildtype: 45000 fold

Ki [5]: 0.18 nM
SMILES: CC(=O)N[C@H]1CSCc2cc3cc(c2)CSC[C@H](NC(=O)[C@H](CCCNC(=N)N)NC(=O)[C@H](C)NC(=O)[C@@H]2CCCN2C(=O)[C@H](Cc2c[nH]c4ccccc24)NC(=O)[C@H](CO)NC1=O)C(=O)N[C@@H](c1ccccc1)C(=O)N[C@@H](Cc1c[nH]cn1)C(=O)N[C@@H](CCC(N)=O)C(=O)N[C@@H](CC(=O)O)C(=O)N[C@@H](CC(C)C)C(=O)N[C@H](C(N)=O)CSC3 [Ac-(06-34-18) Phg6] (Ac-CSWPARC[Phg]HQDLC-NH2; linker 1-7-13 via TBMB)

Ki [5]: 0.13 nM
SMILES: CC(=O)N[C@H]1CSCc2cc3cc(c2)CSC[C@H](NC(=O)[C@H](CCCNC(=N)N)NC(=O)[C@H](C)NC(=O)[C@@H]2CCCN2C(=O)[C@H](Cc2c[nH]c4ccccc24)NC(=O)[C@H](CO)NC1=O)C(=O)N[C@@H](C1CCCCC1)C(=O)N[C@@H](Cc1c[nH]cn1)C(=O)N[C@@H](CCC(N)=O)C(=O)N[C@@H](CC(=O)O)C(=O)N[C@@H](CC(C)C)C(=O)N[C@H](C(N)=O)CSC3 [Ac-(06-34-18) Chg6] (Ac-CSWPARC[Chg]HQDLC-NH2; linker 1-7-13 via TBMB)

Ki [1]: 79 nM | F (Kivar/KiWT) [2]: 187
SMILES: CC(=O)N[C@H]1CSCc2cc3cc(c2)CSC[C@H](NC(=O)[C@H](CCCNC(=N)N)NC(=O)[C@H](Cc2ccc(O)cc2)NC(=O)[C@@H]2CCCN2C(=O)[C@H](Cc2ccccc2)NC(=O)[C@H](CO)NC1=O)C(=O)N[C@@H](CC(C)C)C(=O)N[C@@H](Cc1ccncc1)C(=O)N[C@@H](CCC(N)=O)C(=O)N[C@@H](CC(=O)O)C(=O)N[C@@H](CC(C)C)C(=O)N[C@H](C(N)=O)CSC3 [Ac-(06-34-18) Phe2 Tyr4 4Pal7] (Ac-CSFPYRCL[4Pal]QDLC-NH2; linker 1-7-13 via TBMB)

SMILES: CC(C)C[C@@H]1NC(=O)[C@H](CC(=O)O)NC(=O)[C@H](CCC(N)=O)NC(=O)[C@H](Cc2c[nH]cn2)NC(=O)[C@H](CC(C)C)NC(=O)[C@@H]2CSCc3cc(cc(c3)CSC[C@H](NC(=O)[C@H](C)N)C(=O)N(C)[C@@H](CO)C(=O)N[C@@H](Cc3c[nH]c4ccccc34)C(=O)N3CCC[C@H]3C(=O)N[C@@H](C)C(=O)N[C@@H](CCCNC(=N)N)C(=O)N2)CSC[C@@H](C(=O)N[C@@H](C)C(N)=O)NC1=O [06-34-18-N-MeSer1] (H-AC[NMeS]WPARCLHQDLCA-NH2; linker 2-8-14 via TBMB)
Ki (Ki human PK (nM), Table 6): 0.56 nM
